Reference: patent US20090105235A1, “INSECTICIDAL COMPOSITIONS WITH IMPROVED EFFECT” (Bayer CropScience AG, priority 2005, published 2009)
Where two headings read alike, the source gives them in different places.

Key:
Type in all cases: in vivo
Aphis gossypii [1] = assay: Aphis gossypii test (Example A), cotton, spraying upper side of leaf; details: active compound 24 g/ha, spray volume 600 l/ha
Protocol: To produce a suitable preparation of active compound, 1 part by weight of active compound is mixed with the stated amounts of solvent and emulsifier, and the concentrate is diluted with water to the desired concentration. If addition of ammonium salts, phosphonium salts or penetrants is required, the appropriate amount is added by pipette after dilution of the respective finished preparation solution.
Single-leaf cotton plants (Gossypium hirsutum) which are heavily infested by the cotton aphid (Aphis gossypii) are treated by spraying of the upper side of the leaf (spray volume 600 l/ha) with the active compound preparation at the desired concentration.
(§1) After the desired period of time, the kill in % is determined. 100% means that all animals have been killed; 0% means that none of the animals have been killed.

Myzus persicae [2] = assay: Myzus persicae test (Example D), bell pepper plants sprayed; details: for pest or weed control at 0.8 ppm / pest or weed control at 0.16 ppm / pest or weed control at 4 ppm: Myzus persicae, 144 h, read-out: Kill rate after 6 days, Without penetrant and AS; for Kill rate after 6 days, With penetrant and AS: with penetrant and AS (in each case 1000 ppm)
Protocol: (§2) To produce a suitable preparation of active compound, 1 part by weight of active compound is mixed with the stated amounts of solvent and emulsifier, and the concentrate is diluted with emulsifier-containing water to the desired concentration. If addition of ammonium salts or ammonium salts and penetrant is required, the appropriate amount is added by pipette after dilution of the respective finished preparation solution (in each case 1000 ppm).
Bell pepper plants (Capsicum annuum) which are heavily infested by the green peach aphid (Myzus persicaei) are treated by spraying with the active compound preparation at the desired concentration.
as §1

Aphis gossypii [3] = assay: Aphis gossypii test (Example E), cotton leaves sprayed; details: for Kill rate after 6 days, With penetrant and AS: with penetrant and AS (in each case 1000 ppm)
Protocol: as §2
Cotton leaves (Gossypium hirsutum) which are heavily infested by the cotton aphid (Aphis gossypii) are sprayed with an active compound preparation at the desired concentration.
After the desired period of time, the kill in % is determined. 100% means that all aphids have been killed; 0% means that none of the aphids have been killed.

Myzus persicae [4] = assay: Myzus persicae test (Example F), bell pepper, spraying underside of leaf; details: active compound 0.48 g/ha
Protocol: as §2, with “with” for “with emulsifier-containing”
Single-leaf bell pepper plants (Capsicum annuum) which are heavily infested by the green peach aphid (Myzus persicaei) are treated by spraying of the underside of the leaf with the active compound preparation at the desired concentration.
as §1

Myzus persicae [5] = assay: Myzus persicae test (Example G), bell pepper, spraying upper side of leaf; details: active compound 2.4 g/ha
Protocol: as §2, with “with” for “with emulsifier-containing”
Single-leaf bell pepper plants (Capsicum annuum) which are heavily infested by the green peach aphid (Myzus persicaei) are treated by spraying of the upper side of the leaf with the active compound preparation at the desired concentration.
as §1

Aphis gossypii [6] = assay: Aphis gossypii test (APHIGO contact) (Example H), cotton, spraying underside of leaf; details: active compound 0.192 g/ha
Protocol: as §2, with “with” for “with emulsifier-containing”
Single-leaf cotton plants (Gossypium hirsutum) which are heavily infested by the cotton aphid (Aphis gossypii) are treated by spraying of the underside of the leaf with the active compound preparation at the desired concentration.
as §1

Aphis gossypii [7] = assay: Aphis gossypii test (APHIGO translaminar) (Example I), cotton, spraying upper side of leaf; details: active compound 0.192 g/ha
Protocol: as §2, with “with” for “with emulsifier-containing”
Single-leaf cotton plants (Gossypium hirsutum) which are heavily infested by the cotton aphid (Aphis gossypii) are treated by spraying of the upper side of the leaf with the active compound preparation at the desired concentration.
as §1

[8] = active compound 0.8 ppm, 6 days
[9] = Aphis gossypii, 144 h, read-out: Kill rate after 6 days, Without penetrant and AS
[10] = with penetrant and AS (in each case 1000 ppm)
[11] = active compound 0.16 ppm, 6 days
[12] = Aphis gossypii, 144 h, active compound 0.8 ppm, without penetrant and AS, 6 days, read-out: Kill rate after 6 days, Without penetrant and AS
[13] = active compound 0.8 ppm, without penetrant and AS, 6 days
[14] = active compound 0.16 ppm, without penetrant and AS, 6 days
[15] = Aphis gossypii, 144 h, active compound 0.16 ppm, without penetrant and AS, 6 days, read-out: Kill rate after 6 days, Without penetrant and AS

## CON/C(=N\[N+](=O)[O-])NCc1cnc(Cl)s1 [(Ib-3)]
Aphis gossypii [1]; with ammonium sulphate 1 g/l
  Kill rate after 3 days, With AS 1 g/l: 99%
Aphis gossypii [1]; without ammonium sulphate
  Kill rate after 3 days, Without AS: 77%

## C/N=C(\C(=C/N(C)C)[N+](=O)[O-])N(C)Cc1ccc(Cl)nc1 [Ic-1]
Myzus persicae [2]
  pest or weed control at 0.8 ppm: 0%
Myzus persicae [2]; [8]
  Kill rate after 6 days, With penetrant and AS: 95%
Aphis gossypii [3]; [9]
  pest or weed control at 0.8 ppm: 5%
Aphis gossypii [3]; [8]
  Kill rate after 6 days, With penetrant and AS: 60%
Myzus persicae [4]; [10]
  Kill rate after 7 days, With penetrant and AS: 67%
Myzus persicae [4]; without penetrant and AS
  Kill rate after 7 days, Without penetrant and AS: 0%
Myzus persicae [5]; [10]
  Kill rate after 7 days, With penetrant and AS: 53%
Myzus persicae [5]; without penetrant and AS
  Kill rate after 7 days, Without penetrant and AS: 0%
Aphis gossypii [6]; [10]
  Kill rate after 7 days, With penetrant and AS: 70%
Aphis gossypii [6]; without penetrant and AS
  Kill rate after 7 days, Without penetrant and AS: 0%

## N#C/N=C1\SCCN1Cc1ccc(Cl)nc1 [Ia-3, thiacloprid, reference compound]
Myzus persicae [2]
  pest or weed control at 0.16 ppm: 0%
Myzus persicae [2]; [11]
  Kill rate after 6 days, With penetrant and AS: 50%
Aphis gossypii [3]; [9]
  pest or weed control at 0.16 ppm: 0%
Aphis gossypii [3]; [11]
  Kill rate after 6 days, With penetrant and AS: 70%

## O=C/C(=C1/NCCN1Cc1ccc(Cl)nc1)[N+](=O)[O-] [Ie-2]
Myzus persicae [2]
  pest or weed control at 0.16 ppm: 10%
Myzus persicae [2]; [11]
  Kill rate after 6 days, With penetrant and AS: 95%
Aphis gossypii [3]; [9]
  pest or weed control at 0.16 ppm: 10%
Aphis gossypii [3]; [11]
  Kill rate after 6 days, With penetrant and AS: 95%

## CN/C(=C\[N+](=O)[O-])C(C)c1ccc(Cl)nc1 (stereo not drawn) [Id-1]
Myzus persicae [2]
  pest or weed control at 0.8 ppm: 0%
Myzus persicae [2]; [8]
  Kill rate after 6 days, With penetrant and AS: 90%
Aphis gossypii [3]; [9]
  pest or weed control at 0.8 ppm: 0%
Aphis gossypii [3]; [8]
  Kill rate after 6 days, With penetrant and AS: 55%

## CN/C(=N\[N+](=O)[O-])NCc1cnc(Cl)s1 [Ia-2, clothianidin, reference compound]
Myzus persicae [2]
  pest or weed control at 0.8 ppm: 60%
Myzus persicae [2]; [8]
  Kill rate after 6 days, With penetrant and AS: 100%

## O=[N+]([O-])/N=C1\NCCN1Cc1cnc(Cl)s1 [Ia-8, imidaclothiz, reference compound]
Aphis gossypii [3]; [9]
  pest or weed control at 0.8 ppm: 65%
Aphis gossypii [3]; [8]
  Kill rate after 6 days, With penetrant and AS: 95%

## CN1COCN(Cc2cnc(Cl)s2)/C1=N/[N+](=O)[O-] [Ia-1, thiamethoxam, reference compound]
Myzus persicae [2]
  pest or weed control at 0.16 ppm: 10%
Myzus persicae [2]; [11]
  Kill rate after 6 days, With penetrant and AS: 85%
Aphis gossypii [3]; [9]
  pest or weed control at 0.16 ppm: 0%
Aphis gossypii [3]; [11]
  Kill rate after 6 days, With penetrant and AS: 40%

## CS/C(=N\[N+](=O)[O-])NCCN(Cc1ccc(Cl)nc1)CC1CC1 [Ih-4]
Aphis gossypii [3]; [12]
  pest or weed control at 0.8 ppm: 15%
Aphis gossypii [3]; [8]
  Kill rate after 6 days, With penetrant and AS: 45%

## CN1CN(C)/C(=N\[N+](=O)[O-])N(Cc2cnc(Cl)s2)C1 [Ia-9, AKD-1022]
Myzus persicae [2]
  pest or weed control at 0.8 ppm: 70%
Myzus persicae [2]; [8]
  Kill rate after 6 days, With penetrant and AS: 100%
Aphis gossypii [3]; [9]
  pest or weed control at 0.8 ppm: 80%
Aphis gossypii [3]; [8]
  Kill rate after 6 days, With penetrant and AS: 100%

## CN/C(=N\[N+](=O)[O-])NCC1CCOC1 (stereo not drawn) [Ia-4, dinotefuran, reference compound]
Myzus persicae [2]
  pest or weed control at 4 ppm: 10%
Myzus persicae [2]; active compound 4 ppm, 6 days
  Kill rate after 6 days, With penetrant and AS: 80%
Aphis gossypii [3]; [9]
  pest or weed control at 0.8 ppm: 0%
Aphis gossypii [3]; [8]
  Kill rate after 6 days, With penetrant and AS: 35%

## O=[N+]([O-])/N=C1\NCCN1Cc1ccc(Cl)nc1 [Ia-7, imidacloprid, reference compound]
Myzus persicae [2]
  pest or weed control at 4 ppm: 40%
Myzus persicae [2]; active compound 4 ppm, 6 days
  Kill rate after 6 days, With penetrant and AS: 100%
Aphis gossypii [3]; [9]
  pest or weed control at 4 ppm: 15%
Aphis gossypii [3]; active compound 4 ppm, 6 days
  Kill rate after 6 days, With penetrant and AS: 95%

## C=CCN(CCN/C(=C/[N+](=O)[O-])SC)Cc1ccc(Cl)nc1 [Ih-1]
Myzus persicae [2]; [13]
  pest or weed control at 0.8 ppm: 20%
Myzus persicae [2]; [8]
  Kill rate after 6 days, With penetrant and AS: 98%
Aphis gossypii [3]; [12]
  pest or weed control at 0.8 ppm: 5%
Aphis gossypii [3]; [8]
  Kill rate after 6 days, With penetrant and AS: 95%

## C#CCN(CCN/C(=N/[N+](=O)[O-])OC)Cc1ccc(Cl)nc1 [Ih-3]
Aphis gossypii [3]; [12]
  pest or weed control at 0.8 ppm: 15%
Aphis gossypii [3]; [8]
  Kill rate after 6 days, With penetrant and AS: 55%

## CCN(Cc1ccc(Cl)nc1)/C(=C/[N+](=O)[O-])NC [Ia-6, nitenpyram, reference compound]
Myzus persicae [2]
  pest or weed control at 0.8 ppm: 10%
Myzus persicae [2]; [8]
  Kill rate after 6 days, With penetrant and AS: 90%
Aphis gossypii [3]; [9]
  pest or weed control at 0.8 ppm: 25%
Aphis gossypii [3]; [8]
  Kill rate after 6 days, With penetrant and AS: 99%

## C/C(=N\C#N)N(C)Cc1ccc(Cl)nc1 [Ia-5, acetamiprid, reference compound]
Myzus persicae [2]
  pest or weed control at 0.16 ppm: 0%
Myzus persicae [2]; [11]
  Kill rate after 6 days, With penetrant and AS: 90%

## C#CCN(CCN/C(=C/[N+](=O)[O-])OC)Cc1ccc(Cl)nc1 [Ih-2]
Myzus persicae [2]; [13]
  pest or weed control at 0.8 ppm: 80%
Myzus persicae [2]; [8]
  Kill rate after 6 days, With penetrant and AS: 98%
Aphis gossypii [3]; [12]
  pest or weed control at 0.8 ppm: 65%
Aphis gossypii [3]; [8]
  Kill rate after 6 days, With penetrant and AS: 90%

## O=C1C=C(NCc2ccc(Cl)nc2)CO1 [If-2]
Myzus persicae [2]; [14]
  pest or weed control at 0.16 ppm: 0%
Myzus persicae [2]; [11]
  Kill rate after 6 days, With penetrant and AS: 50%
Aphis gossypii [3]; [15]
  pest or weed control at 0.16 ppm: 0%
Aphis gossypii [3]; [11]
  Kill rate after 6 days, With penetrant and AS: 50%

## CN(Cc1ccc(Cl)nc1)C1=CC(=O)OC1 [If-1]
Myzus persicae [2]; [14]
  pest or weed control at 0.16 ppm: 20%
Myzus persicae [2]; [11]
  Kill rate after 6 days, With penetrant and AS: 85%
Aphis gossypii [3]; [15]
  pest or weed control at 0.16 ppm: 30%
Aphis gossypii [3]; [11]
  Kill rate after 6 days, With penetrant and AS: 75%
Aphis gossypii [7]; [10]
  Kill rate after 7 days, With penetrant and AS: 70%
Aphis gossypii [7]; without penetrant and AS
  Kill rate after 7 days, Without penetrant and AS: 0%
